Measurements as given in article PMC10377353, “Targeted Destruction of S100A4 Inhibits Metastasis of Triple Negative Breast Cancer Cells” (Biomolecules, 2023).

Target: T1, S100A4 (Homo sapiens, UniProt P26447)
T1 construct: recombinant human (rh)S100A4, pET-15b, E. coli BL21 (DE3); with nonmuscle myosin IIA C-terminal fragment (rC-NMIIA, 149 terminal amino acids)
Assay: resonant mirror biosensor (SPR-type), inhibition of rhS100A4 binding to immobilised rC-NMIIA

T1 sequence (P26447 2-101): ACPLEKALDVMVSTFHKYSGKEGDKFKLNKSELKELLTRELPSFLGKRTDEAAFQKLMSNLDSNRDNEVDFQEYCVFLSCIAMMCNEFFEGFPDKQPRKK
T1 sequence (P35579 2-1960 partner): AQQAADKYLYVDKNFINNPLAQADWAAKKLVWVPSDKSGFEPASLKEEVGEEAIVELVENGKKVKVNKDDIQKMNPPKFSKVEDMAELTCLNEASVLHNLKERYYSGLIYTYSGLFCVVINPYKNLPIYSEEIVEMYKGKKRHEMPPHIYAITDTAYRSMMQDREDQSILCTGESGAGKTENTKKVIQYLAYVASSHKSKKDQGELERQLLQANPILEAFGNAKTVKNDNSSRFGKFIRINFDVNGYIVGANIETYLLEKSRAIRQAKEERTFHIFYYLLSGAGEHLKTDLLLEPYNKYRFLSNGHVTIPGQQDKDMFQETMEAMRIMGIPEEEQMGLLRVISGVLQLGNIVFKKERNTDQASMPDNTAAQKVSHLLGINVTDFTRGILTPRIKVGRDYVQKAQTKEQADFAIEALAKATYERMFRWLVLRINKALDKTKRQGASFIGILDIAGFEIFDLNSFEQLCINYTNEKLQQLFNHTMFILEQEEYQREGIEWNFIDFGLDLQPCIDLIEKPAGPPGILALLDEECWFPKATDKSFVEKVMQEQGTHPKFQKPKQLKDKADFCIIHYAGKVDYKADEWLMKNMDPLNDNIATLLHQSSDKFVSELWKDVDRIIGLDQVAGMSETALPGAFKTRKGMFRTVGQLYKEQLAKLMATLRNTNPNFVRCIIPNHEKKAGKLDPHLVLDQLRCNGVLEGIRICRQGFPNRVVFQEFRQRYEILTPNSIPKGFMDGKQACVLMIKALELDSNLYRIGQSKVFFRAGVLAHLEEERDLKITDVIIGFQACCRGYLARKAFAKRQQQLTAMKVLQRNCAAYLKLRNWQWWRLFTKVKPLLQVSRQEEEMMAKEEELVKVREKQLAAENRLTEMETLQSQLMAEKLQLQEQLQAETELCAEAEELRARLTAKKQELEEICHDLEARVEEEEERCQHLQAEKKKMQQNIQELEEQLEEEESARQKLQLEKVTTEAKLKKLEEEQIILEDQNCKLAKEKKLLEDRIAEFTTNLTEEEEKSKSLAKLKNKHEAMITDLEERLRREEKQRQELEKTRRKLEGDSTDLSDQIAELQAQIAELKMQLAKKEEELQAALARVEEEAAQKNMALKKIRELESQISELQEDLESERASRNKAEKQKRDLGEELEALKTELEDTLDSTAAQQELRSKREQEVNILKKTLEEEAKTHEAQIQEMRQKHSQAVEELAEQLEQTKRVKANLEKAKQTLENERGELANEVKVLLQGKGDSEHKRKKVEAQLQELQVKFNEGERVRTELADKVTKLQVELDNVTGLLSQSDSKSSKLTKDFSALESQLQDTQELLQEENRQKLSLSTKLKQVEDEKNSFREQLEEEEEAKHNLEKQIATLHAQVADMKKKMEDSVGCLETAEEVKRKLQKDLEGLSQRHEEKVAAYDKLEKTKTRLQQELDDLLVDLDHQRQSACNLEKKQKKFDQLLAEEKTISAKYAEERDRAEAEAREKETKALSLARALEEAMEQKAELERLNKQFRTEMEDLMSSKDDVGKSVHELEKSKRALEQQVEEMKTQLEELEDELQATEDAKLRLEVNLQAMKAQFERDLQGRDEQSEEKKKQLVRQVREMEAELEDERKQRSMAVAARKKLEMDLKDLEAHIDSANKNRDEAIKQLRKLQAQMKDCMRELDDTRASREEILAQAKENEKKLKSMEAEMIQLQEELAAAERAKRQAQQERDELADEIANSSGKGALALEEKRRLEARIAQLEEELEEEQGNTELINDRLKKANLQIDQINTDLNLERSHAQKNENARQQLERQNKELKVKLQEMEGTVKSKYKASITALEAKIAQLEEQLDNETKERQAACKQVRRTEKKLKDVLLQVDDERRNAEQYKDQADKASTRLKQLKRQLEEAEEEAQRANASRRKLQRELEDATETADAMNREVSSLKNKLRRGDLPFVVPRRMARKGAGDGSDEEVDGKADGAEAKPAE

COC1(OC)[C@@]2(Cl)C(Cl)=C(Cl)[C@]1(Cl)[C@@H]1C(=O)N(c3ccccc3C)C(=O)[C@@H]12 [CT070909]
inhibition at 33 µM: > 90%
